Values quoted from earlier work, collected in PubChem BioAssay AID1259409 (Chemical Carcinogenesis Research Information System (CCRIS), 2018).

System: rodent chemically induced tumor inhibition, incidence and multiplicity
Assay: CCRIS tumor inhibitor studies
Settings: Route [Inhibitor]: ORAL, Promoter: NONE USED

**Q.** Which “tumour outcome (control, treated, inhibition, significance)” value (Carcinogen: AZOXYMETHANE, 25843-45-2, Dose [Inhibitor]: 0, 1000 PPM IN DIET FOR 28 WK BEGINNING 1 WK POST CARCINOGEN TREATMENT (STUDY DURATION: 32 WK), Species: RAT, Strain/Sex: F344/MALE, Target Tissue: Type of Lesion: SMALL INTESTINE: TUMOR, Dose [Carcinogen]: 15 MG/KG BW 1/WK FOR 3 WK) does the source give for `COc1ccc([C@@H]2CC(=O)c3c(O)cc(O[C@@H]4O[C@H](CO[C@@H]5O[C@@H](C)[C@H](O)[C@@H](O)[C@H]5O)[C@@H](O)[C@H](O)[C@H]4O)cc3O2)cc1O` here?
**A.** 5/17 (29%), 0/20 (0%), 100%, p<0.05

**Q.** And the “tumour outcome (control, treated, inhibition, significance)” value (Carcinogen: N-BUTYL-N-(4-HYDROXYBUTYL)NITROSAMINE, 3817-11-6, Dose [Inhibitor]: 0, 1000 PPM IN DIET FOR 8 WK BEGINNING 1 WK PRIOR TO CARCINOGEN TREATMENT (STUDY DURATION: 32 WK), Species: MOUSE, Strain/Sex: ICR/MALE, Target Tissue: Type of Lesion: URINARY BLADDER: PAPILLOMA, Dose [Carcinogen]: 500 PPM IN DRINKING WATER FOR 6 WK)?
**A.** 5/26 (19%), 1/23 (4%), 79%, not significant

**Q.** And the “tumour outcome (control, treated, inhibition, significance)” value (Carcinogen: N-BUTYL-N-(4-HYDROXYBUTYL)NITROSAMINE, 3817-11-6, Dose [Inhibitor]: 0, 1000 PPM IN DIET FOR 24 WK BEGINNING 1 WK POST CARCINOGEN TREATMENT (STUDY DURATION: 32 WK), Species: MOUSE, Strain/Sex: ICR/MALE, Target Tissue: Type of Lesion: URINARY BLADDER: PAPILLOMA, Dose [Carcinogen]: 500 PPM IN DRINKING WATER FOR 6 WK)?
**A.** 5/26 (19%), 3/25 (12%), 37%, not significant

**Q.** And the “tumour outcome (control, treated, inhibition, significance)” value (Carcinogen: N-BUTYL-N-(4-HYDROXYBUTYL)NITROSAMINE, 3817-11-6, Dose [Inhibitor]: 0, 1000 PPM IN DIET FOR 24 WK BEGINNING 1 WK POST CARCINOGEN TREATMENT (STUDY DURATION: 32 WK), Species: MOUSE, Strain/Sex: ICR/MALE, Target Tissue: Type of Lesion: URINARY BLADDER: TRANSITIONAL CELL CARCINOMA, Dose [Carcinogen]: 500 PPM IN DRINKING WATER FOR 6 WK)?
**A.** 16/26 (62%), 5/25 (20%), 68%, p<0.005

**Q.** What about the “tumour outcome (control, treated, inhibition, significance)” value (Carcinogen: N-BUTYL-N-(4-HYDROXYBUTYL)NITROSAMINE, 3817-11-6, Dose [Inhibitor]: O, 1000 PPM IN DIET FOR 8 WK BEGINNING 1 WK PRIOR TO CARCINOGEN TREATMENT (STUDY DURATION: 32 WK), Species: MOUSE, Strain/Sex: ICR/MALE, Target Tissue: Type of Lesion: URINARY BLADDER: TRANSITIONAL CELL CARCINOMA, Dose [Carcinogen]: 500 PPM IN DRINKING WATER FOR 6 WK) of the same compound?
**A.** 16/26 (62%), 3/23 (13%), 79%, p<0.001

**Q.** What about the “tumour outcome (control, treated, inhibition, significance)” value (Carcinogen: N-METHYL-N-AMYLNITROSAMINE, 13256-07-0, Dose [Inhibitor]: 0, 1000 PPM IN DIET FOR 7 WK BEGINNING 1 WK POST CARCINOGEN TREATMENT (STUDY DURATION: 20 WK), Species: RAT, Strain/Sex: WISTAR/MALE, Target Tissue: Type of Lesion: ESOPHAGUS: SQUAMOUS CELL CARCINOMA, Dose [Carcinogen]: 12.5 MG/KG BW 1/WK FOR 12 WK) of the same compound?
**A.** 75%, 56%, 25%, not significant

**Q.** What about the “tumour outcome (control, treated, inhibition, significance)” value (Carcinogen: N-METHYL-N-AMYLNITROSAMINE, 13256-07-0, Dose [Inhibitor]: 0, 1000 PPM IN DIET FOR 7 WK BEGINNING 1 WK POST CARCINOGEN TREATMENT (STUDY DURATION: 20 WK), Species: RAT, Strain/Sex: WISTAR/MALE, Target Tissue: Type of Lesion: ESOPHAGUS: SQUAMOUS CELL PAPILLOMA, Dose [Carcinogen]: 12.5 MG/KG BW 1/WK FOR 12 WK) of the same compound?
**A.** 100%, 100%, 0%, not significant

**Q.** And the “tumour outcome (control, treated, inhibition, significance)” value (Carcinogen: N-METHYL-N-AMYLNITROSAMINE, 13256-07-0, Dose [Inhibitor]: 0, 1000 PPM IN DIET FOR 7 WK BEGINNING 1 WK POST CARCINOGEN TREATMENT (STUDY DURATION: 20 WK), Species: RAT, Strain/Sex: WISTAR/MALE, Target Tissue: Type of Lesion: TONGUE: SQUAMOUS CELL CARCINOMA, Dose [Carcinogen]: 12.5 MG/KG BW 1/WK FOR 12 WK)?
**A.** 17%, 16%, 6%, not significant

**Q.** What about the “tumour outcome (control, treated, inhibition, significance)” value (Carcinogen: N-METHYL-N-AMYLNITROSAMINE, 13256-07-0, Dose [Inhibitor]: 0, 1000 PPM IN DIET FOR 7 WK BEGINNING 1 WK POST CARCINOGEN TREATMENT (STUDY DURATION: 20 WK), Species: RAT, Strain/Sex: WISTAR/MALE, Target Tissue: Type of Lesion: TONGUE: SQUAMOUS CELL PAPILLOMA, Dose [Carcinogen]: 12.5 MG/KG BW 1/WK FOR 12 WK) of the same compound?
**A.** 33%, 16%, 52%, not calculated

**Q.** What about the “tumour outcome (control, treated, inhibition, significance)” value (Carcinogen: N-METHYL-N-AMYLNITROSAMINE, 13256-07-0, Dose [Inhibitor]: 0, 1000 PPM IN DIET FOR 13 WK BEGINNING 1 WK PRIOR TO CARCINOGEN TREATMENT (STUDY DURATION: 20 WK), Species: RAT, Strain/Sex: WISTAR/MALE, Target Tissue: Type of Lesion: ESOPHAGUS: SQUAMOUS CELL CARCINOMA, Dose [Carcinogen]: 12.5 MG/KG BW 1/WK FOR 12 WK) of the same compound?
**A.** 75%, 45%, 40%, not significant

**Q.** And the “tumour outcome (control, treated, inhibition, significance)” value (Carcinogen: N-METHYL-N-AMYLNITROSAMINE, 13256-07-0, Dose [Inhibitor]: 0, 1000 PPM IN DIET FOR 13 WK BEGINNING 1 WK PRIOR TO CARCINOGEN TREATMENT (STUDY DURATION: 20 WK), Species: RAT, Strain/Sex: WISTAR/MALE, Target Tissue: Type of Lesion: ESOPHAGUS: SQUAMOUS CELL PAPILLOMA, Dose [Carcinogen]: 12.5 MG/KG BW 1/WK FOR 12 WK)?
**A.** 100%, 100%, 0%, not significant

**Q.** What about the “tumour outcome (control, treated, inhibition, significance)” value (Carcinogen: N-METHYL-N-AMYLNITROSAMINE, 13256-07-0, Dose [Inhibitor]: 0, 1000 PPM IN DIET FOR 13 WK BEGINNING 1 WK PRIOR TO CARCINOGEN TREATMENT (STUDY DURATION: 20 WK), Species: RAT, Strain/Sex: WISTAR/MALE, Target Tissue: Type of Lesion: TONGUE: SQUAMOUS CELL CARCINOMA, Dose [Carcinogen]: 12.5 MG/KG BW 1/WK FOR 12 WK) of the same compound?
**A.** 17%, 0%, 100%, not calculated

**Q.** And the “tumour outcome (control, treated, inhibition, significance)” value (Carcinogen: N-METHYL-N-AMYLNITROSAMINE, 13256-07-0, Dose [Inhibitor]: 0, 1000 PPM IN DIET FOR 13 WK BEGINNING 1 WK PRIOR TO CARCINOGEN TREATMENT (STUDY DURATION: 20 WK), Species: RAT, Strain/Sex: WISTAR/MALE, Target Tissue: Type of Lesion: TONGUE: SQUAMOUS CELL PAPILLOMA, Dose [Carcinogen]: 12.5 MG/KG BW 1/WK FOR 12 WK)?
**A.** 33%, 10%, 70%, not significant
